{
  "source": "patent US20040029841A1",
  "about": "“Purinergic antagonists for treating depression” (priority 2002, published 2004)",
  "system": "brain bioenergetic status",
  "assay": "In vivo 31P magnetic resonance spectroscopy and T2 relaxation times of the brain (axial slice, bilateral basal ganglia) in healthy individuals taking oral SAMe",
  "set-up": "species or system human",
  "procedure": "This lowering was measured as a decrease in the ratio of beta ATP to total ^31P MRS metabolites and detected using magnetic resonance imaging (see, e.g., U.S. Pat. No. 6,258,794, hereby incorporated by reference).\nFive healthy men and seven healthy women self-administered 1600 mg of oral SAMe daily. The effect of SAMe on brain bioenergetic status, membrane integrity, and brain transverse relaxation time (T2) was then examined. In vivo ^31P magnetic resonance spectra and relaxation times were acquired, at baseline and after 14 and 28 days of treatment, from an axial slice (50 mm) encompassing the bilateral basal ganglia using a 1.5-T scanner. […] The changes observed in PCr and β-NTP are consistent with the report that SAMe is involved in the production of creatine, which in turn is phosphorylated to PCr at the expense of β-NTP (Braissant et al., Brain Res. Mol. Brain Res. 2001, 86:193-201).\nAs changes in T2 relaxation times are inversely related to alterations in steady state blood flow, the decrease in T2 observed in women corresponds to a 3.8% increase in cerebral blood flow.",
  "data": [
    {"smiles": "C[S+](CC[C@H](N)C(=O)O)C[C@H]1O[C@@H](n2cnc3c(N)ncnc32)[C@H](O)[C@@H]1O", "note": "(some centres unmarked) [SAMe, S-adenosylmethionine]", "values": [
      {"measurement": "circulating levels of ATP (ratio of beta ATP to total 31P MRS metabolites)", "setting": "healthy individuals, on average, magnetic resonance", "result": "lowering of circulating levels of ATP"},
      {"measurement": "mole percent concentrations of phosphocreatine (PCr)", "setting": "healthy men and women, 1600 mg oral SAMe daily, 14 and 28 days of treatment vs baseline, 31P MRS, basal ganglia slice", "result": "significantly higher than at baseline"},
      {"measurement": "mole percent beta nucleoside triphosphate (β-NTP) levels, predominantly adenosine triphosphate in the brain", "setting": "healthy men and women, 1600 mg oral SAMe daily, after treatment vs baseline, 31P MRS, FIG. 1", "result": "decreased significantly"},
      {"measurement": "brain transverse relaxation time (T2)", "setting": "women vs men at the end of the treatment regimen, 1600 mg oral SAMe daily", "result": "significantly lower T2 values than men"},
      {"measurement": "increase in cerebral blood flow", "setting": "women, worked out from the decrease in T2 relaxation time", "result": 3.8, "unit": "%"}
    ]}
  ]
}
